Test results taken from ChEMBL document CHEMBL4004887, “Design, synthesis and in vitro activity of 1,4-disubstituted piperazines and piperidines as triple reuptake inhibitors” (Bioorg Med Chem, 2017).

Experiments:
Assay type in all cases: cell-based
[1] = biological target: Sodium-dependent serotonin transporter (Homo sapiens, UniProt P31645); test: Inhibition of [3H]-5-hydroxytryptamine reuptake in human SERT expressed in HEK293 cells by microbeta liquid scintillation counting method
[2] = biological target: Sodium-dependent noradrenaline transporter (Homo sapiens, UniProt P23975); test: Inhibition of […] reuptake in human NET expressed in HEK293 cells by microbeta liquid scintillation counting method
Sodium-dependent noradrenaline transporter, sequence (P23975 whole entry): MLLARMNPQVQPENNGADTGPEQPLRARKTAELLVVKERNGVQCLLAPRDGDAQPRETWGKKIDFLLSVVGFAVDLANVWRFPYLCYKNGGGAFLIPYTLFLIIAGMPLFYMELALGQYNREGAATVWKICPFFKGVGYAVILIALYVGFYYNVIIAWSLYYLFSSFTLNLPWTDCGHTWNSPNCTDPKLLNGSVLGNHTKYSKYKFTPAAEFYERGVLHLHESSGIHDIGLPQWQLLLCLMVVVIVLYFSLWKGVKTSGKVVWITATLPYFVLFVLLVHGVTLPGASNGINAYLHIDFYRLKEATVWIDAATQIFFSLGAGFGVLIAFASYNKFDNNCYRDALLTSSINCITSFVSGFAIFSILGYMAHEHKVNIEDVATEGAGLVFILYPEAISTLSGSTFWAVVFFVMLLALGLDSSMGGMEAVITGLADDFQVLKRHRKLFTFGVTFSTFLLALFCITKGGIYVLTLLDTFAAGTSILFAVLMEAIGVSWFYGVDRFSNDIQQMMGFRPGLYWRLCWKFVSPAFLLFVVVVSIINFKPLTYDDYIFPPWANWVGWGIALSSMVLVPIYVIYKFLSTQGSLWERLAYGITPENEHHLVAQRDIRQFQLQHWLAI

[3] = biological target: Sodium-dependent dopamine transporter (Homo sapiens, UniProt Q01959); test: Inhibition of […] reuptake in human DAT expressed in HEK293 cells by microbeta liquid scintillation counting method
Sodium-dependent dopamine transporter, sequence (Q01959 whole entry): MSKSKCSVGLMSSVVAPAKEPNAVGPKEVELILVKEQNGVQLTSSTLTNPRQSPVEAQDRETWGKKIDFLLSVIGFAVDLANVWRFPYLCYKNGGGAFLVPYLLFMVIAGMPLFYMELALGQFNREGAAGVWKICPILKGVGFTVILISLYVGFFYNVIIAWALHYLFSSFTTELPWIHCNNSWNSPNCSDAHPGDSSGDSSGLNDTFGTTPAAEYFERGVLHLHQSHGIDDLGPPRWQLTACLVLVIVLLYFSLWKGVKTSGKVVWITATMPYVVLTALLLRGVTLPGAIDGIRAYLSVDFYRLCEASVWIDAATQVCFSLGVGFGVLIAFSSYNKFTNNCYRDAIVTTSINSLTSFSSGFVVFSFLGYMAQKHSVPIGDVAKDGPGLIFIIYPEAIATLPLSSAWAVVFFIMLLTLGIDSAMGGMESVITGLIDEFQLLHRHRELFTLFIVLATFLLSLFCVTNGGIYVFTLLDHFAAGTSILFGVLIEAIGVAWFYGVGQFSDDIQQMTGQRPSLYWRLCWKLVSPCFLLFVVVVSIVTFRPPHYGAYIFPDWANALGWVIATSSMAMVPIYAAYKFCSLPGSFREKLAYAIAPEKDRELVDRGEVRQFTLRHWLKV

Sodium-dependent serotonin transporter, sequence (P31645 whole entry): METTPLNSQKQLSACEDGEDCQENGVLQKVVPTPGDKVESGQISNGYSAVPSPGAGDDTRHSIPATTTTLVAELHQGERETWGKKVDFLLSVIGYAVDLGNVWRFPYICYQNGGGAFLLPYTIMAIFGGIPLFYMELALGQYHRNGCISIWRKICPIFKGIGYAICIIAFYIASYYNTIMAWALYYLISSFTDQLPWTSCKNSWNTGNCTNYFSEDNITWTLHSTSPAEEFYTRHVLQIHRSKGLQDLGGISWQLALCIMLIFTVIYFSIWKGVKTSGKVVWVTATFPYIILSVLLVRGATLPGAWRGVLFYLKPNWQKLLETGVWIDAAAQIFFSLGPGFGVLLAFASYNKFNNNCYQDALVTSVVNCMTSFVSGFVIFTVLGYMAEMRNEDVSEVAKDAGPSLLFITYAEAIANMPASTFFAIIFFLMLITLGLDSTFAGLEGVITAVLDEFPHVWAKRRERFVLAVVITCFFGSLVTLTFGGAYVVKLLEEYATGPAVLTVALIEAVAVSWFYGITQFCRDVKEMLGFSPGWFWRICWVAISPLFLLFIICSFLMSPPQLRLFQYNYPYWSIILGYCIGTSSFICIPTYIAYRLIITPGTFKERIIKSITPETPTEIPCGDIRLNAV

SMILES | IC50 [1] [nM] | IC50 [2] [nM] | IC50 [3] [nM]
O=C(NCCCN1CCC(Cc2ccccc2)CC1)C(c1ccc(Cl)cc1)c1ccc(Cl)cc1 | 7670 | 2020 | 1350
C(=C\c1ccccc1)/CN1CCN(CCCn2nnnc2C(c2ccccc2)c2ccccc2)CC1 | 7500 | 1330 | 2230
c1ccc(CCCN2CCN(CCCn3nnnc3C(c3ccccc3)c3ccccc3)CC2)cc1 | 8000 | 569 | 1640
Fc1ccc(C(OCCN2CCN(c3cccc(Cl)c3Cl)CC2)c2ccc(F)cc2)cc1 | 5000 | 3000 | 3000
Fc1ccc(C(OCCN2CCN(c3ccccc3Cl)CC2)c2ccc(F)cc2)cc1 | > 10000 | 1260 | 5600
Fc1ccc(C(OCCN2CCC(Cc3ccccc3)CC2)c2ccc(F)cc2)cc1 | 1670 | 5860 | 6820
c1ccc(CN2CCN(CCCn3nnnc3C(c3ccccc3)c3ccccc3)CC2)cc1 | 5050 | 521 | 292
C(=C\c1ccccc1)/CN1CCN(CCCCn2nnnc2C(c2ccccc2)c2ccccc2)CC1 | 6290 | 318 | 3640
Fc1ccc(C(OCCN2CCN(c3ccccn3)CC2)c2ccc(F)cc2)cc1 | 579 | 603 | 990
Fc1ccc(C(OCCN2CCN(c3ccc(Cl)cc3Cl)CC2)c2ccc(F)cc2)cc1 | 3910 | 3750 | 10000
c1ccc(CCN2CCN(CCn3nnnc3C(c3ccccc3)c3ccccc3)CC2)cc1 | 4830 | 2830 | 680
Fc1ccc(C(OCCN2CCN(c3cccc(Cl)c3)CC2)c2ccc(F)cc2)cc1 | 4960 | 1310 | 2750
c1ccc(CCCN2CCN(CCn3nnnc3C(c3ccccc3)c3ccccc3)CC2)cc1 | 3860 | 1470 | 692
Fc1ccc(C(OCCN2CCN(c3ccc(Cl)cc3)CC2)c2ccc(F)cc2)cc1 | 6910 | 1590 | 1390
c1ccc(CC2CCN(CCn3nnnc3C(c3ccccc3)c3ccccc3)CC2)cc1 | 7700 | 1710 | 310
Fc1ccc(C(OCCN2CCN(c3ccccc3)CC2)c2ccc(F)cc2)cc1 | 1910 | 5330 | 10000
Fc1ccc(C(OCCN2CCN(c3ccc(Cl)c(Cl)c3)CC2)c2ccc(F)cc2)cc1 | 5220 | 1320 | 4100
Fc1ccc(C(OCCN2CCN(c3ncccn3)CC2)c2ccc(F)cc2)cc1 | 1410 | 1620 | 1700

Continued, values first:

IC50 [1] [nM] | IC50 [2] [nM] | IC50 [3] [nM] | SMILES
> 10000 | 2210 | 1070 | O=C(NCCCN1CCC(Cc2ccccc2)CC1)C(c1ccccc1)c1ccccc1
> 10000 | 1680 | 190 | O=C(NCCN1CCC(Cc2ccccc2)CC1)C(c1ccccc1)c1ccccc1
> 10000 | 8030 | 630 | O=C(NCCN1CCC(Cc2ccccc2)CC1)C(c1ccc(Cl)cc1)c1ccc(Cl)cc1
> 10000 | 519 | 94 | c1ccc(CC2CCN(CCCn3nnnc3C(c3ccccc3)c3ccccc3)CC2)cc1
8000 | 329 | 608 | c1ccc(CCN2CCN(CCCCn3nnnc3C(c3ccccc3)c3ccccc3)CC2)cc1
> 10000 | 4220 | 2290 | c1ccc(CN2CCN(CCn3nnnc3C(c3ccccc3)c3ccccc3)CC2)cc1
1120 | 400 | 1110 | c1ccc(CCN2CCN(CCCn3nnnc3C(c3ccccc3)c3ccccc3)CC2)cc1
550 | 1530 | 590 | c1ccc(CC2CCN(CCCCn3nnnc3C(c3ccccc3)c3ccccc3)CC2)cc1
> 10000 | 1760 | 940 | C(=C\c1ccccc1)/CN1CCN(CCn2nnnc2C(c2ccccc2)c2ccccc2)CC1
1500 | 323 | 317 | c1ccc(CN2CCN(CCCCn3nnnc3C(c3ccccc3)c3ccccc3)CC2)cc1
